Results as given in patent US20180132470A1, “CONTROLLED STAND-ALONE MATRIX SYSTEM FOR THE CONTROLLED DISTRIBUTION OF ACTIVE SUBSTANCES” (AB7 Innovation S.A.S.U., priority 2015, published 2018).

Experiment: Release of IR3535 from cast polyurethane matrix, with and without heating activation
Assay type: physicochemical
Experimental: For the matrix, the same inputs are used as in Example 1. The PMEO is replaced by insecticide (IR3535®), which represents 30% by weight in relation to the total weight of the matrix.
The electronic card is programmed as in Example 2 except that the heating is systematically cut off when the intra-matrix temperature reaches 150° C.
FIG. 4 represents the reference release profile of IR3535® which is a non-volatile substance at ambient temperature. […] The sequential and successive activations were performed for 18 hours at a rate of 10 minutes heating followed by 20 minutes' pause. The intra-matrix temperature measured was 45° C.

CCCCN(CCC(=O)OCC)C(C)=O [IR3535®, ethyl-3-acetyl(butyl)amino-propanoate]
residual quantity of IR3535 in relation to the quantity initially incorporated (after 590 sequences of heating): 9.5 % by weight | release of IR3535 initially incorporated (after 18 hours, sequential activations 10 min heating / 20 min pause, intra-matrix 45° C., cast polyurethane matrix): up to 3 % by weight | release of IR3535 by passive diffusion (same polyurethane matrix unheated at ambient temperature, even after 20 hours): releases absolutely nothing | average quantity of IR3535 released (solely at moments of activation, cast polyurethane matrix): 3.5 mg/h
